Reference: patent US9568449B2, “Dielectric spectroscopy methods and apparatus” (Bend Research, Inc., priority 2012, dated 2017)

What was measured:
[1] = system: first population of cells; assay: Dielectric spectroscopy (normalized capacitance versus frequency) of an apoptosis-induced cell population; assay type: cell-based; details: from time of staurosporine addition (day 14) to 60 hours after addition; compared with slight drift in control; FIG. 19D
Description: At process block 1810, data representing a number of measurements of an electrical property of a first population of cells are received. The measurements can be obtained by applying a frequency-varying signal (e.g., a sine wave having a frequency that is varied across a selected frequency range, or at two or more selected frequencies) to the population of cells while measuring an electrical property such as permittivity or capacitance. A number of selected frequencies can be used, for example, frequencies between 50 kHz and 10 MHz. The measured permittivity of the population of cells will vary depending on the frequency of the applied signal used to measure permittivity. For example, the permittivity can range from a high measurement of 4×10^−9 Farads per meter (F/m) at a low frequency of 50 kHz to a low measurement of 1×10^−11 F/m at a high frequency of 10 MHz. […] The cells can be mammalian cells (e.g. from the CHO or NS0 cell lines) suspended in a nutrient solution.
At process block 1830, the first set of measurements for the first population of cells and the second set of measurements for the second population of cells are compared.
The chart 1950 of FIG. 19D illustrates the first set of measurements obtained from the first population of cells that has an apoptosis-inducing agent added at day 14 of cell growth.

[2] = system: first population of cells; assay: Viability of a cell population after apoptosis induction with staurosporine; assay type: cell-based; details: 1 μM staurosporine added at day 14 of cell growth; compared with untreated control population; FIG. 19B
Protocol: FIG. 19A is a chart 1900 that illustrates the viability of cells (along the y-axis) in two different cell populations over a period of time (along the x-axis) in an example experiment corresponding to the method of FIG. 18. As shown, a first line 1910 indicates the viability of a first population of cells, which has apoptosis induced using addition of a staurosporine agent. In this case, a 1 μM concentration of staurosporine was used. A second line 1915 indicates the viability of a second population of cells, which is a control population that is not induced using a staurosporine agent.
At a designated time period, apoptosis is induced in the first population of cells by adding an apoptosis inducing agent to the environment.
FIG. 19B is a chart 1930 that illustrates viable cell density (VCD) (left y-axis) and cell viability percentage (right y-axis) plotted over time (x-axis) for the first and second measurements of the first and second populations of cells received at process block 1810 and 1820.

With `CN[C@@H]1C[C@H]2O[C@@](C)([C@@H]1OC)n1c3ccccc3c3c4c(c5c6ccccc6n2c5c31)C(=O)NC4` [staurosporine] the “shift of normalized capacitance versus frequency curve” value [1] was “more substantial drift to the right”, the cell viability percentage [2] was “declining” and the “viable cell density (VCD)” value [2] was “declining”.
